Laboratory results taken from patent publication US8652823B2, “Strain for butanol production with increased membrane unsaturated trans fatty acids” (Butamax(TM) Advanced Biofuels LLC, priority 2008, dated 2014).

How the values were obtained:
Type in all cases: cell-based, Lactobacillus plantarum
[1] = tested on: L. plantarum PN0512; test: Growth yield of fatty acid fed cultures in the presence of 2-butanol; conditions: for OD600 (growth yield): overnight growth at 30° C., average of biological replicates
Description: (§1) Growth medium was semi-synthetic LAB medium, pH7, with bovine serum albumin (BSA) used as a carrier. […] The composition of this medium is as follows:
(§2) All medium ingredients were purchased from Sigma Chemical Company (St. Louis, Mo.) except yeast extract and casamino acids, which were purchased from Beckton, Dickinson and Co (Sparks, Md.). Free fatty acids, added to a final concentration of […] from 1% ethanol stock solutions (stored at −20° C.), were purchased from Sigma Chemical Company (St Louis, Mo.), Isobutanol, 1-butanol, 2-butanol, and methyl ethyl ketone (MEK) were purchased from Sigma Chemical Company (St. Louis, Mo.).
(§3) A working stock of Lactobacillus plantarum PN0512 (ATCC # PTA-7727) was prepared to use as a consistent source of inoculum. Cultures were grown in MRS medium (Acumedia Manufacturers, Inc. Lansing, Mich.) at 30° C. overnight. Glycerol was added to a final concentration of 12.5% and aliquots were frozen at −80° C. One aliquot was thawed at room temperature and used to inoculate all tubes in an experiment and then discarded.
(§4) For growth yield experiments, 5 ml of medium with fatty acids and several concentrations of 1-butanol, isobutanol, 2-butanol, or MEK in 15 ml screw cap tubes was inoculated with 12.5 μl of the working stock giving an initial OD600 of 0.012. The caps were tightly sealed and incubated at 30° C. on a roller drum for 20 to 26 hours, at which time 1.0 ml was removed and OD600 was measured with a blank of medium amended with the fatty acid. All solvent concentrations are reported as % (w/v).
(§5) Cultures were prepared as described in General Methods.

[2] = tested on: L. plantarum PN0512; test: Growth yield of fatty acid fed cultures in the presence of MEK; conditions: for OD600 (growth yield): overnight growth at 30° C., average of biological replicates
Description: as §1, §2, §3, §4, §5

[3] = tested on: L. plantarum PN0512; test: Growth yield of fatty acid fed cultures in the presence of isobutanol; conditions: for OD600 (growth yield): 20 hours at 30° C., average of two experiments
Description: as §1, §2, §3, §4
Growth in the presence of these fatty acids and various concentrations of isobutanol was tested. Cultures were prepared as described in General Methods.

[4] = tested on: L. plantarum PN0512; test: Growth yield of fatty acid fed cultures in the presence of 1-butanol; conditions: for OD600 (growth yield): overnight growth at 30° C., average of biological replicates
Description: as §1, §2, §3, §4, §5

Row | Compound | OD600 (growth yield) ([1]; 2-butanol 0 % w/v) | OD600 (growth yield) ([1]; 2-butanol 2.0 % w/v) | OD600 (growth yield) ([1]; 2-butanol 4.0 % w/v) | OD600 (growth yield) ([1]; 2-butanol 4.5 % w/v) | OD600 (growth yield) ([1]; 2-butanol 4.7 % w/v) | OD600 (growth yield) ([1]; 2-butanol 4.9 % w/v) | OD600 (growth yield) ([1]; 2-butanol 5.1 % w/v) | OD600 (growth yield) ([1]; 2-butanol 5.3 % w/v) | OD600 (growth yield) ([1]; 2-butanol 5.5 % w/v) | OD600 (growth yield) ([2]; MEK 0 % (w/v)) | OD600 (growth yield) ([2]; MEK 3.5 % (w/v)) | OD600 (growth yield) ([2]; MEK 4.0 % (w/v)) | OD600 (growth yield) ([2]; MEK 4.5 % (w/v)) | OD600 (growth yield) ([2]; MEK 5.0 % (w/v)) | OD600 (growth yield) ([2]; MEK 5.5 % (w/v)) | OD600 (growth yield) ([3]; isobutanol 1.5 % w/v) | OD600 (growth yield) ([3]; isobutanol 2.0 % w/v) | OD600 (growth yield) ([3]; isobutanol 2.5 % w/v) | OD600 (growth yield) ([3]; isobutanol 2.7 % w/v) | OD600 (growth yield) ([3]; isobutanol 2.9 % w/v) | other results
1 | CCCCCCCC/C=C/CCCCCCCC(=O)O [elaidic acid, (E)-octadec-9-enoic acid] | 1.490 | 1.430 | 1.030 | 0.400 | 0.186 | 0.088 | 0.038 | 0.030 | 0.008 | 1.548 | 1.0041 | 0.9105 | 0.8871 | 0.3235 | 0.1477 | 1.145 | 1.100 | 0.922 | 0.606 | 0.281 | tolerance to 2-butanol when compared to the oleic acid fed culture [1]: improved tolerance; growth yield higher than in the oleic acid fed cultures ([1]; 4.5% w/v 2-butanol): 4 fold; tolerance to MEK as compared with oleic acid fed cultures [2]: did not have improved tolerance to MEK; growth yield higher than in the oleic acid fed cultures ([3]; 2.5% w/v isobutanol): 78%; growth yield compared with the oleic acid fed cultures ([3]; concentrations greater than 2% isobutanol): greater; OD600 (growth yield) ([3]; isobutanol 3.1 % w/v): 0.122; OD600 (growth yield) ([3]; isobutanol 3.3 % w/v): 0.072; OD600 (growth yield) ([3]; isobutanol 3.5 % w/v): 0.042; OD600 (growth yield) ([4]; 1-butanol 0 % (w/v)): 1.508; OD600 (growth yield) ([4]; 1-butanol 2.0 % (w/v)): 1.039; OD600 (growth yield) ([4]; 1-butanol 2.25 % (w/v)): 1.003; OD600 (growth yield) ([4]; 1-butanol 2.5 % (w/v)): 0.559; OD600 (growth yield) ([4]; 1-butanol 2.75 % (w/v)): 0.095; OD600 (growth yield) ([4]; 1-butanol 3.0 % (w/v)): 0.009; growth yield higher than in the oleic acid fed cultures ([4]; 2.5% w/v 1-butanol): greater than 3 fold; growth yield compared with the oleic acid fed cultures ([4]; concentrations greater than 2% 1-butanol): greater
2 | CCCCCCCC/C=C\CCCCCCCC(=O)O [oleic acid, reference compound] | 1.480 | 1.410 | 0.431 | 0.100 | 0.067 | 0.040 | 0.030 | 0.004 | 0.004 | 1.539 | 1.002 | 0.9446 | 0.942 | 0.6828 | 0.5004 | 1.110 | 1.130 | 0.519 | 0.387 | 0.095 | OD600 (growth yield) ([1]; 2-butanol 3.0 % w/v): 1.130; OD600 (growth yield) ([3]; isobutanol 3.1 % w/v): 0.063; OD600 (growth yield) ([3]; isobutanol 3.3 % w/v): 0.035; OD600 (growth yield) ([3]; isobutanol 3.5 % w/v): 0.015; OD600 (growth yield) ([4]; 1-butanol 0 % (w/v)): 1.509; OD600 (growth yield) ([4]; 1-butanol 2.0 % (w/v)): 1.026; OD600 (growth yield) ([4]; 1-butanol 2.25 % (w/v)): 0.611; OD600 (growth yield) ([4]; 1-butanol 2.5 % (w/v)): 0.161; OD600 (growth yield) ([4]; 1-butanol 2.75 % (w/v)): 0.061; OD600 (growth yield) ([4]; 1-butanol 3.0 % (w/v)): 0.003
